# Where two headings read alike, the source gives them in different places.
# Key:
# [1] = Octopirox® degradation under cool white light; type: physicochemical; conditions: cool white light (indoor light), 24 hours, room temperature, LCMS / UPLC-UV
# Procedure: Cool White Light Treatment:
# The cool white light (CWL) irradiation was carried out in an X-Rite (Macbeth) Spectra Light III chamber. CWL mode was chosen which provides stable irradiation mimicking the indoor light. The intensity of light was fixed which estimated at 6 μw/cm2 for UVA and 1.5 μw/cm^2 for UVB. The chamber temperature was equal to the room temperature ([…]). The sample was placed in a line close to the center of the chamber. After 24 hours, the sample was analyzed by LCMS (Water UPLC coupled with Quatro Micro MS)., by quantitatively measured using UPLC-UV analysis following DPS derivatization.
# The separation was performed by a UPLC BEH C18 column and the mobile phase was acetonitrile/water (60/40, 0.1% formic acid) in isocratic elution. Electrospray ionization in positive mode was applied for MS scan.
# [2] = background statement (well known; Clariant introduction), cited from earlier work
# THP1-XBlue™ cells = test: Anti-inflammation efficacy in THP-1 in vitro assay (LPS co-treatment, IL-6 ELISA); type: cell-based; conditions: co-treated with E. coli LPS, PMA-differentiated THP1-XBlue cells, 24 hours, supernatant ELISA, LPS alone 3253.4
# Procedure: The following procedure was used to test the anti-inflammation efficacy of the compound:
# THP1-XBlue™ (Cat No: thpx-sp, InvivoGen) cells were cultured as suspense in RPMI 1640 medium supplemented with 10% FBS, penicillin (10 U/mL)—streptomycin (10 μg/ML). Cells were differentiated in 24-well plates at the density of 5×10^5 cells/well with 100 nM PMA for 72 hours. Cells were then co-treated with pure E. coli ipopolysaccharides (LPS) and with the compound inside the invention. After 24 hours, the supernatants were collected and measured for interleukin (IL)-6 as pro-inflammatory bio-marker using enzyme-linked immunosorbent assay (ELISA).
Compound,quantity of Octopirox® after cool white light irradiation [1],light stability [2],light stability ([2]; listed as piroctone olamine),Concentration of IL-6 (THP1-XBlue™ cells; 5 μM of the compound) [pg/mL],Concentration of IL-6 (THP1-XBlue™ cells; 10 μM of the compound) [pg/mL]
"Cc1cc(CC(C)CC(C)(C)C)n(O)c(=O)c1.NCCO (centres unmarked) [Octopirox®, piroctone olamine]",reduced,unstable under light,light instable,,
Cc1cc(O)nc(CC(C)CC(C)(C)C)c1 (centres unmarked) [the compound],,,,3083.3,1405.3
